Species on record: Rattus norvegicus
Assay: Open TG-GATES - Regimen: Single
Type: toxicity, organism-based, Sprague-Dawley
Set-up: regimen Single, gender Male, age 6 weeks
Settings: in vivo, po, 300 mg/kg, route gavage, dose level High; for APTT / Bas / Eos / Fbg / Hb / Ht / Lym / MCH / MCHC / MCV / Mono / Neu / PT / Plat / RBC / Ret / WBC: tissue Blood; for KIDNEY_L / KIDNEY_R / KIDNEY_TOTAL: tissue Kidney; for LIVER: tissue Liver; for A/G / ALP / ALT / AST / BUN / CRE / Ca / Cl / DBIL / GLC / IP / K / LDH / Na / PL / RALB / TBIL / TC / TG / TP / gamma-GTP: tissue Plasma

`CCc1oc2ccccc2c1C(=O)c1cc(I)c(O)c(I)c1` [BENZIODARONE] showed a TERMINAL_BW (3 h) of 211.6 g, an APTT (3 h) of 17 s and a Bas (3 h) of 0%. The Eos (3 h) was 0.2%, the Fbg (3 h) was 206 mg/dL and the Hb (3 h) was 13 g/dL. The Ht (3 h) was 39%, the Lym (3 h) was 75.8% and the MCH (3 h) was 21.6 pg. It also gave an MCHC (3 h) of 33.3%, an MCV (3 h) of 65 fL and a Mono (3 h) of 7.4%. For the same molecule, the Neu (3 h) was 16.4%, the PT (3 h) was 11.9 s and the Plat (3 h) was 107 x10_4/uL. For the same molecule, the RBC (3 h) was 600.4 x10_4/ul, the Ret (3 h) was 11.4% and the WBC (3 h) was 93.8 x10_2/uL. It also gave a KIDNEY_L (3 h) of 0.9 g, a KIDNEY_R (3 h) of 1 g and a KIDNEY_TOTAL (3 h) of 1.9 g. It also gave an LIVER (3 h) of 10 g, an A/G (3 h) of 2 and an ALP (3 h) of 893 IU/L. For the same molecule, the ALT (3 h) was 37.8 IU/L, the AST (3 h) was 64.6 IU/L and the BUN (3 h) was 16.4 mg/dL. It also gave a CRE (3 h) of 0.6 mg/dL, a Ca (3 h) of 10.5 mg/dL and a Cl (3 h) of 102 meq/L. For the same molecule, the DBIL (3 h) was 0.056 mg/dL, the GLC (3 h) was 230.8 mg/dL and the IP (3 h) was 9.7 mg/dL. For the same molecule, the K (3 h) was 4.7 meq/L, the LDH (3 h) was 102.8 IU/L and the Na (3 h) was 139 meq/L. The PL (3 h) was 133.6 mg/dL, the RALB (3 h) was 3.5 g/dL and the TBIL (3 h) was 0.5 mg/dL. For the same molecule, the TC (3 h) was 71.4 mg/dL, the TG (3 h) was 71.4 mg/dL and the TP (3 h) was 5.3 g/dL. For the same molecule, the gamma-GTP (3 h) was 1.2 IU/L, the TERMINAL_BW (6 h) was 214.2 g and the APTT (6 h) was 18.2 s. The Bas (6 h) was 0%, the Eos (6 h) was 1% and the Fbg (6 h) was 205.8 mg/dL. It also gave a Hb (6 h) of 13 g/dL, a Ht (6 h) of 38.8% and a Lym (6 h) of 79%. The MCH (6 h) was 21.9 pg, the MCHC (6 h) was 33.6% and the MCV (6 h) was 65.4 fL. The Mono (6 h) was 3.6%, the Neu (6 h) was 16.8% and the PT (6 h) was 12.2 s. It also gave a Plat (6 h) of 113.1 x10_4/uL, an RBC (6 h) of 593.6 x10_4/ul and a Ret (6 h) of 11.2%. The WBC (6 h) was 70.8 x10_2/uL, the KIDNEY_L (6 h) was 0.9 g and the KIDNEY_R (6 h) was 1 g. For the same molecule, the KIDNEY_TOTAL (6 h) was 1.9 g, the LIVER (6 h) was 9.4 g and the A/G (6 h) was 2.1. It also gave an ALP (6 h) of 980.4 IU/L, an ALT (6 h) of 39.6 IU/L and an AST (6 h) of 64.4 IU/L. For the same molecule, the BUN (6 h) was 14.6 mg/dL, the CRE (6 h) was 0.6 mg/dL and the Ca (6 h) was 10.4 mg/dL. For the same molecule, the Cl (6 h) was 102.8 meq/L, the DBIL (6 h) was 0.052 mg/dL and the GLC (6 h) was 235.6 mg/dL. It also gave an IP (6 h) of 10.3 mg/dL, a K (6 h) of 4.5 meq/L and an LDH (6 h) of 89 IU/L. The Na (6 h) was 140.2 meq/L, the PL (6 h) was 129.4 mg/dL and the RALB (6 h) was 3.6 g/dL. For the same molecule, the TBIL (6 h) was 0.4 mg/dL, the TC (6 h) was 73.8 mg/dL and the TG (6 h) was 36 mg/dL. The TP (6 h) was 5.2 g/dL, the gamma-GTP (6 h) was 1.4 IU/L and the TERMINAL_BW (9 h) was 215.8 g. It also gave an APTT (9 h) of 18.7 s, a Bas (9 h) of 0% and an Eos (9 h) of 0.6%. For the same molecule, the Fbg (9 h) was 208.2 mg/dL, the Hb (9 h) was 13.5 g/dL and the Ht (9 h) was 40.2%. For the same molecule, the Lym (9 h) was 80%, the MCH (9 h) was 22.1 pg and the MCHC (9 h) was 33.6%. The MCV (9 h) was 65.7 fL, the Mono (9 h) was 6.8% and the Neu (9 h) was 12.8%. The PT (9 h) was 12.2 s, the Plat (9 h) was 114.6 x10_4/uL and the RBC (9 h) was 612 x10_4/ul. For the same molecule, the Ret (9 h) was 9.3%, the WBC (9 h) was 88.9 x10_2/uL and the KIDNEY_L (9 h) was 1 g. It also gave a KIDNEY_R (9 h) of 1 g, a KIDNEY_TOTAL (9 h) of 2 g and an LIVER (9 h) of 9 g. It also gave an A/G (9 h) of 2.1, an ALP (9 h) of 976.4 IU/L and an ALT (9 h) of 38.2 IU/L. For the same molecule, the AST (9 h) was 63 IU/L, the BUN (9 h) was 17 mg/dL and the CRE (9 h) was 0.6 mg/dL. It also gave a Ca (9 h) of 10.5 mg/dL, a Cl (9 h) of 103.8 meq/L and a DBIL (9 h) of 0.098 mg/dL. For the same molecule, the GLC (9 h) was 214 mg/dL, the IP (9 h) was 10.8 mg/dL and the K (9 h) was 4.7 meq/L. It also gave an LDH (9 h) of 107.6 IU/L, a Na (9 h) of 141.8 meq/L and a PL (9 h) of 139.2 mg/dL. The RALB (9 h) was 3.7 g/dL, the TBIL (9 h) was 0.2 mg/dL and the TC (9 h) was 75.4 mg/dL. The TG (9 h) was 77 mg/dL, the TP (9 h) was 5.4 g/dL and the gamma-GTP (9 h) was 1.4 IU/L. It also gave a TERMINAL_BW (24 h) of 220.7 g, an APTT (24 h) of 16.9 s and a Bas (24 h) of 0%. It also gave an Eos (24 h) of 0.6%, a Fbg (24 h) of 200.8 mg/dL and a Hb (24 h) of 13.4 g/dL. For the same molecule, the Ht (24 h) was 39.8%, the Lym (24 h) was 81% and the MCH (24 h) was 21.7 pg. It also gave an MCHC (24 h) of 33.8%, an MCV (24 h) of 64.4 fL and a Mono (24 h) of 6%. The Neu (24 h) was 12.6%, the PT (24 h) was 12.1 s and the Plat (24 h) was 120.3 x10_4/uL. The RBC (24 h) was 618.2 x10_4/ul, the Ret (24 h) was 9.6% and the WBC (24 h) was 106.3 x10_2/uL. It also gave a KIDNEY_L (24 h) of 1 g, a KIDNEY_R (24 h) of 1 g and a KIDNEY_TOTAL (24 h) of 2 g. The LIVER (24 h) was 11.9 g, the A/G (24 h) was 2.2 and the ALP (24 h) was 1044.4 IU/L. For the same molecule, the ALT (24 h) was 36.2 IU/L, the AST (24 h) was 67.2 IU/L and the BUN (24 h) was 17.8 mg/dL. It also gave a CRE (24 h) of 0.6 mg/dL, a Ca (24 h) of 10.7 mg/dL and a Cl (24 h) of 104 meq/L. For the same molecule, the DBIL (24 h) was 0.008 mg/dL, the GLC (24 h) was 184.8 mg/dL and the IP (24 h) was 8.3 mg/dL. The K (24 h) was 4.6 meq/L, the LDH (24 h) was 89.2 IU/L and the Na (24 h) was 141.2 meq/L. The PL (24 h) was 120.2 mg/dL, the RALB (24 h) was 3.9 g/dL and the TBIL (24 h) was 0.3 mg/dL. It also gave a TC (24 h) of 66.6 mg/dL, a TG (24 h) of 72 mg/dL and a TP (24 h) of 5.7 g/dL. The gamma-GTP (24 h) was 1.4 IU/L.
